This is an account of results in paper PMC5537346, “Characterisation and pharmacological analysis of a crustacean G protein-coupled receptor: the red pigment-concentrating hormone receptor of Daphnia pulex” (Scientific Reports, 2017).

Where two headings read alike, the source gives them in different places. Where a SMILES comes first, the peptide text is derived from it. [ ]: non-standard residue; d: D form. pGlu = O=C1CC[C@@H](C(=O)O)N1

Assay [1] deals with T1, Dappu-RPCHR (Daphnia pulex RPCH receptor) (Daphnia pulex, UniProt A0A240FBD5).
T1 sequence (A0A240FBD5 1-451): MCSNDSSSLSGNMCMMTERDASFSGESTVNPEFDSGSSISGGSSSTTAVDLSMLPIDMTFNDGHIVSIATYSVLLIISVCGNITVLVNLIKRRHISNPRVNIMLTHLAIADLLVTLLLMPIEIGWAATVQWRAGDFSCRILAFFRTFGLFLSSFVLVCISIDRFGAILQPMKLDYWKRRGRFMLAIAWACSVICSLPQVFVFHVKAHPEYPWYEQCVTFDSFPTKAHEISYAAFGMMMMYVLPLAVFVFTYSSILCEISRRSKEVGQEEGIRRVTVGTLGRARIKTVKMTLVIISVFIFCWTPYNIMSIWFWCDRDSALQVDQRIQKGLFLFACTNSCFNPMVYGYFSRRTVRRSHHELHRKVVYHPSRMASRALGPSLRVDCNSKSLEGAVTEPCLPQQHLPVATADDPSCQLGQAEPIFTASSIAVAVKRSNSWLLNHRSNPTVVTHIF
Kind of assay: in vitro cell-based bioluminescence (aequorin Ca2+) assay on Dappu-RPCHR expressing CHO-WTA11 cells. The following applies: for fold lower affinity / potency relative to Dappu-RPCH: from EC50 values. As to the method:
Pharmacological analyses were performed in Chinese hamster ovary (CHO) WTA11 cells stably co-expressing the bioluminescent protein apoaequorin and the promiscuous Gα16 subunit, which couples most agonist-induced GPCRs to the phospholipase C and Ca^2+ pathway, irrespective of their natural signalling cascade.
CHO-WTA11 cells were cultured in monolayers in Dulbecco’s Modified Eagles Medium nutrient mixture F12-Ham (DMEM/F12) with L-glutamine, 15 mM HEPES, sodium bicarbonate and phenol red (Sigma-Aldrich) supplemented with 100 IU/ml penicillin and 100 µg/ml streptomycin (Gibco), 10% heat-inactivated fetal bovine serum (Gibco) and […] zeocin (Gibco). All cells were maintained in an incubator at 37 °C with a constant supply of 5% CO2.
Transfections with pcDNA3.1-Dappu-RPCHR or empty pcDNA3.1 vector were carried out in T75 flasks at 60–80% confluency. Transfection medium was prepared using the Lipofectamine LTX Kit (Invitrogen) with 2.5 ml Opti-MEM® (Gibco), 12.5 µl PlusTM Reagent and 5 µg vector construct in 5 ml polystyrene round-bottom tubes. After a 5 min incubation period at room temperature, 30 µl LTX was added to the medium. After a further incubation period of 30 min at room temperature, the medium was removed and DNA/LTX mix was added dropwise to the cells followed by 3 ml of fresh complete medium.
Following transfection, cells were incubated overnight (37 °C, 5% CO2), then 10 ml of cell medium was added followed by a second overnight incubation (37 °C, 5% CO2). Ligand-induced changes in intracellular Ca^2+ were then monitored in the cells as described below.
CHO-WTA11 cells transfected with receptor construct (or empty vector) plasmid were detached with PBS, complemented with 0.2% EDTA (pH 8.0), and rinsed off the flask with DMEM/F12 with L-glutamine and 15 mM HEPES (Sigma-Aldrich). The number of viable and nonviable cells was determined using a TC20 automated Cell Counter (BIO-RAD). The cells were pelleted for 5 minutes at 800 rpm and resuspended to a density of 5.10^6 cells/ml in sterile filtered bovine serum albumin (BSA) medium (DMEM/F12 with L-glutamine and 15 mM Hepes, supplemented with 0.1% BSA) and loaded with 5 µM Coelenterazine_h (Invitrogen) for 4 h in the dark, at room temperature, while gently shaking to reconstitute the holo-enzyme aequorin. After a 10-fold dilution, cell solution (50 µl) was delivered to each well in a 96-well plate (~25000 cells/well) and cells were exposed to potential ligands reconstituted in BSA medium and distributed across the plate. In every row, BSA medium alone was placed in one well to serve as the negative control (blank). The Ca^2+ response was recorded for 30 s on a Mithras LB 940 (Berthold Technologies). After 30 s, 0.1% Triton X-100, a non-ionic surfactant, was added to the same well to measure the total cellular Ca^2+ response. The total response (ligand + Triton X-100), which is directly related to the number of cells present in the well, was used to normalise the response. The response of each negative control was subtracted from the luminescence obtained for wells within the same row. Calculations were made using the output file from the Microwin software (Berthold Technologies) in Excel (Microsoft). Further analysis was done in GraphPad Prism 5.

In another assay the test system is Palaemon pacificus. The arrangement: method as in PMID 19686751. As to conditions: in vivo, shrimp Palaemon pacificus; cited from earlier work.
The subject of a further assay is Nezara viridula. Further details: method as in PMID 19686751. As to conditions: in vivo; cited from earlier work.
Setting [2] is: Table 1, AKH/RPCH and related peptides, calculated from dose-response curves.
The mark [3] stands for this setting: Table 2, analogues of Dappu-RPCH.

With pQVTFSRDWSPamide [Locmi-ACP], in assay [1] (Locmi-ACP statement at 10 µM), the “activation of Dappu-RPCHR (in words)” value is given as “only slightly active”. Further, in assay [1] (peptide concentration of 10 µM), the “% of the maximum activation” value stood at 30%.
Usually EC50 stands for the concentration giving half of the maximal effect. On to `CC(C)[C@H](NC(=O)[C@@H]1CCC(=O)N1)C(=O)N[C@@H](CC(N)=O)C(=O)N[C@@H](Cc1ccccc1)C(=O)N[C@@H](CO)C(=O)N1CCC[C@H]1C(=O)N[C@@H](CO)C(=O)N[C@@H](Cc1c[nH]c2ccccc12)C(=O)NCC(=O)N[C@@H](CC(N)=O)C(N)=O` [Placa-HrTH, pQVNFSPSWGNamide] ([pGlu]VNFSPSWGN-NH2), for which, in assay [1], the EC50 was 0.66 nM and the “fold lower affinity / potency relative to Dappu-RPCH” value is recorded as “ca. 10 fold”. Further, in assay [1] (setting [2]), the concentration for a half-maximal effect (EC50) is 0.664 nM.
In the case of `CC(C)[C@H](NC(=O)[C@@H]1CCC(=O)N1)C(=O)N[C@@H](CC(N)=O)C(=O)N[C@@H](Cc1ccccc1)C(=O)N[C@@H](CO)C(=O)N[C@H](C(=O)NCC(=O)N[C@@H](Cc1c[nH]c2ccccc12)C(N)=O)[C@@H](C)O` [Grybi-AKH, pQVNFSTGWamide] ([pGlu]VNFSTGW-NH2), the concentration giving a half-maximal response (EC50) in assay [1] is 0.067 nM; in assay [1] (setting [2]), 0.0667 nM.
Molecule `CC(C)[C@H](NC(=O)[C@@H]1CCC(=O)N1)C(=O)N[C@@H](CC(N)=O)C(=O)N[C@@H](Cc1ccccc1)C(=O)N[C@@H](C)C(=O)N[C@H](C(=O)N[C@@H](CO)C(=O)N[C@@H](Cc1c[nH]c2ccccc12)C(N)=O)[C@@H](C)O` [[Ala^5]Dappu-RPCH, pQVNFATSWamide] ([pGlu]VNFATSW-NH2) returned an EC50 in assay [1] (setting [3]) of 3.61 nM.
Take `CC(C)[C@H](NC(=O)[C@@H]1CCC(=O)N1)C(=O)N[C@@H](CC(N)=O)C(=O)N[C@@H](Cc1ccccc1)C(=O)N[C@@H](CO)C(=O)N[C@H](C(=O)N[C@@H](CO)C(=O)N[C@@H](Cc1c[nH]c2ccccc12)C(N)=O)[C@@H](C)O` [Dappu-RPCH, pQVNFSTSWamide] ([pGlu]VNFSTSW-NH2): the EC50 is 0.065 nM in assay [1], 0.0645 nM in assay [1] (setting [2]) and 0.0645 nM in assay [1] (setting [3]). Besides, in assay [1], the “concentration at which full activity was achieved” value amounted to 0.1 nM. The “effect on pigment migration in a decapod crustacean” value in the assay with Palaemon pacificus was “could not affect pigment migration”. Besides, the “biological activity in the green stink bug” value in the assay on Nezara viridula is “caused measurable biological activity”.
In the case of `CC(C)[C@H](NC(=O)[C@@H]1CCC(=O)N1)C(=O)N[C@@H](CC(N)=O)C(=O)N[C@@H](Cc1ccccc1)C(=O)N[C@@H](CO)C(=O)N1CCC[C@H]1C(=O)N[C@@H](CO)C(=O)N[C@@H](Cc1c[nH]c2ccccc12)C(N)=O` [Anaim-AKH, pQVNFSPSWamide] ([pGlu]VNFSPSW-NH2), the EC50 in assay [1] (setting [2]) is 0.224 nM.
On to `CC(C)[C@H](NC(=O)[C@@H]1CCC(=O)N1)C(=O)N[C@@H](CC(N)=O)C(=O)N[C@@H](Cc1ccccc1)C(=O)N[C@@H](CO)C(=O)N[C@@H](C)C(=O)N[C@@H](CO)C(=O)N[C@@H](Cc1c[nH]c2ccccc12)C(N)=O` [[Ala^6]Dappu-RPCH, pQVNFSASWamide] ([pGlu]VNFSASW-NH2), for which the midpoint of the response in assay [1] (setting [3]), the EC50, lay at 0.532 nM.
Turning to `CC(C)C[C@H](NC(=O)[C@@H]1CCC(=O)N1)C(=O)N[C@@H](CC(N)=O)C(=O)N[C@@H](Cc1ccccc1)C(=O)N[C@@H](CO)C(=O)N[C@H](C(=O)NCC(=O)N[C@@H](Cc1c[nH]c2ccccc12)C(N)=O)[C@@H](C)O` [Schgr-AKH-II, pQLNFSTGWamide] ([pGlu]LNFSTGW-NH2), the concentration for a half-maximal effect (EC50) in assay [1] (setting [2]) was 0.237 nM. Also, the “fold lower affinity / potency relative to Dappu-RPCH” value in assay [1] is on record as “about 4 fold”.
`CC(C)C[C@H](NC(=O)[C@@H]1CCC(=O)N1)C(=O)N[C@@H](CC(N)=O)C(=O)N[C@@H](Cc1ccccc1)C(=O)N[C@@H](CO)C(=O)N[C@@H](CO)C(=O)NCC(=O)N[C@@H](Cc1c[nH]c2ccccc12)C(N)=O` [Nepci-AKH, pQLNFSSGWamide] ([pGlu]LNFSSGW-NH2): the EC50 in assay [1] (setting [2]) is 0.272 nM. Besides, in assay [1], the “fold lower affinity / potency relative to Dappu-RPCH” value was “about 4 fold”.
As to `CC(C)[C@H](NC(=O)[C@@H]1CCC(=O)N1)C(=O)N[C@@H](CC(N)=O)C(=O)N[C@@H](Cc1ccccc1)C(=O)N[C@@H](CO)C(=O)N1CCC[C@H]1C(=O)NCC(=O)N[C@@H](Cc1c[nH]c2ccccc12)C(N)=O` [Manto-CC, pQVNFSPGWamide] ([pGlu]VNFSPGW-NH2), the “EC50 values (in words)” value in assay [1] is recorded as “more or less the same as for Anaim-AKH”. The EC50 in assay [1] (setting [2]) is 0.1 nM.
`CC(C)[C@H](NC(=O)[C@@H]1CCC(=O)N1)C(=O)N[C@@H](CC(N)=O)C(=O)N[C@@H](Cc1ccccc1)C(=O)N[C@@H](CO)C(=O)N[C@H](C(=O)N[C@@H](C)C(=O)N[C@@H](Cc1c[nH]c2ccccc12)C(N)=O)[C@@H](C)O` [[Ala^7]Dappu-RPCH, pQVNFSTAWamide] ([pGlu]VNFSTAW-NH2) had a 50% effective concentration (EC50) in assay [1] (setting [3]) of 0.355 nM.
Consider `CC(C)[C@H](NC(=O)[C@@H]1CCC(=O)N1)C(=O)N[C@@H](CC(N)=O)C(=O)N[C@@H](Cc1ccccc1)C(=O)N[C@@H](CO)C(=O)N1CCC[C@H]1C(=O)N[C@@H](CC(N)=O)C(=O)N[C@@H](Cc1c[nH]c2ccccc12)C(N)=O` [Peram-CAH-I, pQVNFSPNWamide] ([pGlu]VNFSPNW-NH2), for which the “EC50 values (in words)” value in assay [1] is “more or less the same as for Anaim-AKH”. Further, the half-maximal effective concentration (EC50) in assay [1] (setting [2]) was 0.393 nM.
